Patent US10851067B2, “Kv7 channel activators compositions and methods of use” (Knopp Biosciences LLC, priority 2018, dated 2020)

target: Kv7.2/7.3 (Homo sapiens, UniProt O43525+O43526); experiment: Kv7.2/7.3 Activation Assay, QPatch single concentration screen; type: cell-based; set-up: host or cells: HEK cells, tetracycline-inducible expression; key: 1.2-2.9 (+); 3-3.9 (++); >4 (+++) fold increase over baseline; O represents open channel at holding potential; settings: Kv7.2/Kv7.3 co-expressing HEK cells, compound concentration 3 μM, steady-state current at end of 2 s pulse to −30 mV
Method: Kv7.2/7.3 Activation Assay
The ability of compounds to potentiate K-currents in Kv7.2/7.3 containing HEK cells was assessed using planar patch-clamp on the QPatch automated screening platform.
The hKv7.2/7.3 cell line was obtained from Chantest (Cleveland, Ohio 44128) cat. #CT6147. These HEK cells will express the Kv7.2/7.3 ion channels when induced.
Cells were maintained in a media containing DMEM/F12; 50/50 (GIBCO cat. #11330), 10% Fetal Bovine Serum (FBS) (GIBCO cat. #26140), 100 units/mL Penicillin-Streptomycin (GIBCO cat. #15140), 0.005 mg/mL Blasticidin (INVIVOGEN cat. #ant-b1-1), 0.5 mg/mL Geneticin (GIBCO cat. #10131), 0.1 mg/mL Zeocin (GIBCO cat. #R25001). Cells used in the electrophysiology assay were maintained in a media without Blasticidin, Geneticin and Zeocin for 2 days and channel expression was induced by adding tetracycline (BIOLINE cat. #BIO-87030) at a final concentration of 1 mg/mL. Cells were grown in T-175 flask to ˜75% confluency. Currents were recorded 24 hours after channel induction.
Test compounds were prepared by performing serial dilutions on a Biomek NX^P (BECKMAN COULTER). Final dilutions were made in external recording solution with a final DMSO concentration of 0.1% DMSO. For single concentration screens each plate had 10 μM retigabine as a positive control and 0.1% DMSO as a negative control.
On the day of the experiment cells were washed with Hank's Balanced Salt Solution (HBBS) (GIBCO cat. #14175) and harvested with Tryple (GIBCO cat. #12604). Cells were then centrifuged at 2000 rpm for 5 minutes and resuspended in CHO-S-SFM (GIBCO cat. #12052) at ˜3×10^6 cells/mL. Cells were stirred for 30 minutes before experiments were started. External recording solution contained (in mM): NaCl (145), KCl (4), CaCl2 (2), MgCl2 (1), HEPES (10) and Glucose (10); pH was adjusted to 7.4 with NaOH and the osmolarity was adjusted to 300-305 mOsM with sucrose if necessary. Internal solution contained (in mM): KCl (125), KF (10), EGTA (5), Na2ATP (5), MgCl2 (3.2), HEPES (5); pH was adjusted to 7.2 with KOH and the osmolarity was adjusted to 298-302 mOsM with sucrose.
Potassium channel activity was measured on the QPatch HTX (Sophion Bioscience) using QPlates with 48-wells/plate. Each cell was taken as an independent experiment and only one compound was tested per well. Potassium channel activity was elicited by holding at −80 mV and stepping to −30 mV for 2 s followed by a 100 ms pulse to −120 mV.
Single Concentration Screen:
Baseline conditions were obtained by recording 5 sweeps in the external solution only, this was repeated for three applications of the external solution. The effect of test compounds on elicited current was then assessed by recording 5 sweeps in the presence of a 3 μM compound solution. The steady-state current at the end of the 2 s pulse to −30 mV was measured to determine the fold increase from baseline.

Structure (SMILES)	Kv7.2/7.3 Activity: increase over baseline in current
CC1(CC(=O)Nc2nc3ccc(C(C)(C)O)cc3n2C2(C)CCC2)CC1 [Example 391, N-(6-(2-hydroxypropan-2-yl)-1-(1-methylcyclobutyl)-1H-benzo[d]imidazol-2-yl)-2-(1-methylcyclopropyl)acetamide]	+ (1.2-2.9 (+))
CC(C)(CC(=O)Nc1nc2cc(F)c(OC(F)F)cc2n1C(C)(C)C)C1CC1 [Example 368, N-(1-(tert-butyl)-6-(difluoromethoxy)-5-fluoro-1H-benzo[d]imidazol-2-yl)-3-cyclopropyl-3-methylbutanamide]	+ (1.2-2.9 (+))
CC(C)(C)CC(=O)Nc1nc2c(F)cc(C#N)c(F)c2n1C(C)(C)C [Example 457, N-(1-(tert-butyl)-6-cyano-4,7-difluoro-1H-benzo[d]imidazol-2-yl)-3,3-dimethylbutanamide]	++ (3-3.9 (++))
CC(C)(O)c1cc(F)c2nc(NC(=O)CC3CC(F)(F)C3(F)F)n(C3CCC3)c2c1 (single isomer, unassigned) [Example 400, N-(1-cyclobutyl-4-fluoro-6-(2-hydroxypropan-2-yl)-1H-benzo[d]imidazol-2-yl)-2-(2,2,3,3-tetrafluorocyclobutyl)acetamide]	+++ (>4 (+++) fold increase over baseline)
CC(C)(C)CC(=O)Nc1nc2cc(F)c(C(C)(C)O)c(F)c2n1C1CCC1 [Example 362, N-(1-cyclobutyl-5,7-difluoro-6-(2-hydroxypropan-2-yl)-1H-benzo[d]imidazol-2-yl)-3,3-dimethylbutanamide]	++ (3-3.9 (++))
CC(C)(CC(=O)Nc1nc2c(F)cc(C3(O)CCC3)cc2n1C1CCC1)C(F)(F)F [Example 352, N-(1-cyclobutyl-4-fluoro-6-(1-hydroxycyclobutyl)-1H-benzo[d]imidazol-2-yl)-4,4,4-trifluoro-3,3-dimethylbutanamide]	++ (3-3.9 (++))
CC(O)(CC(=O)Nc1nc2ccc(C#N)cc2n1C1(C)CCC1)c1c(F)cccc1F (single isomer, unassigned) [Example 467, N-(6-cyano-1-(1-methylcyclobutyl)-1H-benzo[d]imidazol-2-yl)-3-(2,6-difluorophenyl)-3-hydroxybutanamide]	+ (1.2-2.9 (+))
CC(O)(CC(=O)Nc1nc2cc(Cl)c(C#N)cc2n1C1CCC1)c1ccccc1 (single isomer, unassigned) [Example 347, N-(5-chloro-6-cyano-1-cyclobutyl-1H-benzo[d]imidazol-2-yl)-3-hydroxy-3-phenylbutanamide]	+ (1.2-2.9 (+))
CC(C)(O)c1ccc2nc(NC(=O)Cc3cccc(F)c3)n(C3(C)CCC3)c2c1 [Example 435, 2-(3-fluorophenyl)-N-(6-(2-hydroxypropan-2-yl)-1-(1-methylcyclobutyl)-1H-benzo[d]imidazol-2-yl)acetamide]	O
CC(C)(C)CC(=O)Nc1nc2ccc(C3(F)COC3)cc2n1C1CCC1 [Example 432, N-(1-cyclobutyl-6-(3-fluorooxetan-3-yl)-1H-benzo[d]imidazol-2-yl)-3,3-dimethylbutanamide]	+++ (>4 (+++) fold increase over baseline)
COc1cc(F)c2nc(NC(=O)CC(C)(C)C(F)(F)F)n(C3(C)CCC3)c2c1 [Example 433, 4,4,4-trifluoro-N-(4-fluoro-6-methoxy-1-(1-methylcyclobutyl)-1H-benzo[d]imidazol-2-yl)-3,3-dimethylbutanamide]	++ (3-3.9 (++))
CC(O)(CC(=O)Nc1nc2ccc(C#N)cc2n1CC1CC1)c1ccccc1 (single isomer, unassigned) [Example 428, N-(6-cyano-1-(cyclopropylmethyl)-1H-benzo[d]imidazol-2-yl)-3-hydroxy-3-phenylbutanamide]	++ (3-3.9 (++))
C[C@H](C(=O)Nc1nc2ccc(C(C)(C)O)cc2n1CC(F)(F)F)C(C)(C)C [Example 407, (S)-N-(6-(2-hydroxypropan-2-yl)-1-(2,2,2-trifluoroethyl)-1H-benzo[d]imidazol-2-yl)-2,3,3-trimethylbutanamide]	++ (3-3.9 (++))
CC(C)(C)CC(=O)Nc1nc2ccc(C(C)(C)O)cc2n1C1CC(F)(F)C1 [Example 332, N-(1-(3,3-difluorocyclobutyl)-6-(2-hydroxypropan-2-yl)-1H-benzo[d]imidazol-2-yl)-3,3-dimethylbutanamide]	+ (1.2-2.9 (+))
CC(O)(CC(=O)Nc1nc2ccc(OC(F)F)cc2n1C(C)(C)C)c1ccccc1 (single isomer, unassigned) [Example 418, N-(1-(tert-butyl)-6-(difluoromethoxy)-1H-benzo[d]imidazol-2-yl)-3-hydroxy-3-phenylbutanamide]	++ (3-3.9 (++))
COC(=O)Cc1c(F)ccc2nc(NC(=O)CC(C)(C)C)n(C3CCC3)c12 [Example 447, methyl 2-(1-cyclobutyl-2-(3,3-dimethylbutanamido)-6-fluoro-1H-benzo[d]imidazol-7-yl)acetate]	+++ (>4 (+++) fold increase over baseline)
CC(C)(C)n1c(NC(=O)CC(C)(C)C(F)(F)F)nc2ccc(C#N)c(F)c21 [Example 444, N-(1-(tert-butyl)-6-cyano-7-fluoro-1H-benzo[d]imidazol-2-yl)-4,4,4-trifluoro-3,3-dimethylbutanamide]	++ (3-3.9 (++))
CC(C)(O)c1ccc2nc(NC(=O)CC3CC(F)(F)C3(F)F)n(C3(C)CCC3)c2c1 (single isomer, unassigned) [Example 376, N-(6-(2-hydroxypropan-2-yl)-1-(1-methylcyclobutyl)-1H-benzo[d]imidazol-2-yl)-2-(2,2,3,3-tetrafluorocyclobutyl)acetamide]	+ (1.2-2.9 (+))
CC(C)(O)c1ccc2nc(NC(=O)CC3CC(F)(F)C3(F)F)n(C3CCC3)c2c1 (single isomer, unassigned) [Example 398, N-(1-cyclobutyl-6-(2-hydroxypropan-2-yl)-1H-benzo[d]imidazol-2-yl)-2-(2,2,3,3-tetrafluorocyclobutyl)acetamide]	+ (1.2-2.9 (+))
CC1(CC(=O)Nc2nc3c(F)cc(C(C)(C)O)cc3n2C2(C)CCC2)CC1 [Example 474, N-(4-fluoro-6-(2-hydroxypropan-2-yl)-1-(1-methylcyclobutyl)-1H-benzo[d]imidazol-2-yl)-2-(1-methylcyclopropyl)acetamide]	O
CC(C)(C)CC(=O)Nc1nc2ccc(C#N)cc2n1C(C)(C)C(F)(F)F [Example 401, N-(6-cyano-1-(1,1,1-trifluoro-2-methylpropan-2-yl)-1H-benzo[d]imidazol-2-yl)-3,3-dimethylbutanamide]	++ (3-3.9 (++))
CC(O)(CC(=O)Nc1nc2ccc(C#N)cc2n1CC1CC1)c1ccccc1 (single isomer, unassigned) [Example 344, N-(6-cyano-1-(cyclopropylmethyl)-1H-benzo[d]imidazol-2-yl)-3-hydroxy-3-phenylbutanamide]	+ (1.2-2.9 (+))
CC(C)(C)CC(=O)Nc1nc2c(F)cc(Br)cc2n1C1CCC1 [Example 343, N-(6-bromo-1-cyclobutyl-4-fluoro-1H-benzo[d]imidazol-2-yl)-3,3-dimethylbutanamide]	+++ (>4 (+++) fold increase over baseline)
CC(C)(C)CC(=O)Nc1nc2ccc(OC(F)F)cc2n1C1CCC1 [Example 389, N-(1-cyclobutyl-6-(difluoromethoxy)-1H-benzo[d]imidazol-2-yl)-3,3-dimethylbutanamide]	++ (3-3.9 (++))
